Values quoted from earlier work in patent publication US9211338B2, “Composition and method for treating HPV” (Universite Libre de Bruxelles, priority 2011, dated 2015).
Read-outs that look alike come from different tables or passages of the source.

Experiments:
HPV-positive cells = conditions: in vitro

For `Nc1ccn(C[C@@H](CO)OCP(=O)(O)O)c(=O)n1` [cidofovir], the “inhibition of cell proliferation” value (HPV-positive cells) is listed as “concentration- and time-dependent inhibition of cell proliferation”, the clinical outcome (HPV; intravenous (systemic), disseminated papillomatosis) is listed as “stabilization of disseminated papillomatosis” and the clinical outcome (HPV; local intratumor injections, patients with papillomatous lesions) is listed as “complete regression of the tumor”.
